The source of these data is patent publication US7449545B2, “Antimicrobial bolisin peptides” (IPF Pharmaceuticals GmbH, priority 2001, dated 2008).

Ends that are not written are not given here.

Holding throughout (format): cell-based
The test system of experiment [1] is Escherichia coli ATCC 25922. The note with it: ATCC 25922, 2 h. Put shortly:
(§1)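 Antimicrobial potency of the synthesized peptides is expressed as MIC (μg/ml), read as complete inhibition of growth after an 18±2 h incubation in a Mueller Hinton Broth dilution series.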

The subject of experiment [2] is Staphylococcus aureus ATCC 25923. The note with it: ATCC 25923, 2 h. Put shortly: as §1
Experiment [3] relates to Candida albicans ATCC 10231. The note with it: for minimum inhibition concentration: ATCC 10231, 2 h.
Experiment [4] deals with Streptococcus pneumoniae DSM 11865 (penicillin-resistant). The note with it: DSM 11865, 2 h. Put shortly: as §1
For experiment [5], the system named is Klebsiella pneumoniae ATCC 10031. As to conditions: ATCC 10031, 2 h. Summed up:
as §1

Experiment [6] has as its system Enterococcus faecalis ATCC 51299 (vancomycin-resistant). The note with it: ATCC 51299, 2 h. Put shortly: as §1
Experiment [7] concerns Pseudomonas aeruginosa ATCC 9027. The note with it: Mueller Hinton Broth; complete growth inhibition not achieved.
Experiment [8] has as its system Staphylococcus aureus ATCC 25923. The note with it: Tryptic Soy Broth (3 g/l) with 150 mM sodium chloride; complete growth inhibition not achieved. How it is done: (§2) The antibiotic activity of bolisin analogues was examined by determining the minimum inhibition concentration. The minimum inhibition concentration of an analogue designates the lowest peptide concentration which is required to inhibit the growth of microorganisms completely after an incubation time of 18±2 h. This method allows to obtain a quantitative result about the antimicrobial potency of the peptides. These examinations were performed by analogy with the recommendations (M7-A3) edited by the NCCLS (National Committee for Clinical Laboratory Standards) by applying a dilution test in a liquid medium using chemically synthesized peptides (peptide sequences according to claims 1 to 3). Mueller Hinton Broth was used as the test medium according to the NCCLS recommendations unless indicated otherwise. […] The minimum inhibition concentrations are stated in [μg/ml].
(§3) A complete growth inhibition could not be achieved in this case. For determining the minimum inhibition concentration, the following microorganisms were used: • 1. Staphylococcus aureus ATCC 25923 • 2. Enterococcus faecalis ATCC 51299 (vancomycin-resistant) • 3. Streptococcus pneumoniae DSM 11865 (penicillin-resistant) • 4. Escherichia coli ATCC 25922 • 5. Pseudomonas aeruginosa ATCC 9027 • 6. Klebsiella pneumoniae ATCC 10031 • 7. Candida albicans ATCC 10231
(§4) Also for these examinations, the minimum inhibition concentration of the peptides against Gram-positive and Gram-negative microorganisms (microorganisms 1-6) was determined. Tryptic Soy Broth (3 g/l) with an addition of salt in physiological concentration (150 mM sodium chloride) was used as the test medium.
(§5) A complete growth inhibition could not be achieved in this case.

Experiment [9] concerns Streptococcus pneumoniae DSM 11865 (penicillin-resistant). As to conditions: Tryptic Soy Broth (3 g/l) with 150 mM sodium chloride; complete growth inhibition not achieved. As for the experimental part:
as §2, §3, §4, §5

Experiment [10] relates to Klebsiella pneumoniae ATCC 10031. As to conditions: Tryptic Soy Broth (3 g/l) with 150 mM sodium chloride; complete growth inhibition not achieved. How it is done: as §2, §3, §4, §5
The subject of experiment [11] is Enterococcus faecalis ATCC 51299 (vancomycin-resistant). As to conditions: Tryptic Soy Broth (3 g/l) with 150 mM sodium chloride; complete growth inhibition not achieved. As for the experimental part: as §2, §3, §4, §5
The subject of experiment [12] is Pseudomonas aeruginosa ATCC 9027. The note with it: ATCC 9027, 2 h.

As for “KYIVYKIRSAWKRRKALK-OH [BOL-86, KYIVYKIRSAWKRRKALK]”, the minimum inhibition concentration is 150 µg/mL in [1]; 75 µg/mL in experiment [2]; 18.75 µg/mL in experiment [3]; 150 µg/mL in experiment [4]; 50 µg/mL in experiment [5]; 200 µg/mL in experiment [6]. Besides, the results for the “peptide concentration giving 75% inhibition of growth (value in parentheses)” value in experiment [7], in experiment [8] and in experiment [9] were “(18.75) μg/ml”, “(300) μg/ml” and “(300) μg/ml”, respectively.
As for “YIVWKIRSARKRWKALK-OH [BOL-81, YIVWKIRSARKRWKALK]”, the minimum inhibition concentration in [1] was 300 µg/mL; in experiment [2], 300 µg/mL; in experiment [3], 75 µg/mL; in [4] it was 75 µg/mL; in experiment [5] it was 25 µg/mL; in experiment [6], 150 µg/mL. Besides, the “peptide concentration giving 75% inhibition of growth (value in parentheses)” value in experiment [7] is “(18.75) μg/ml”; in [8] it was “(300) μg/ml”; in [9], “(75) μg/ml”.
Turning to “YIVYKIRRARKRRKALK-OH [BOL-52, YIVYKIRRARKRRKALK]”, the minimum inhibition concentration in [1] was above 300 µg/mL; in [2], 300 µg/mL; in [4] it was 200 µg/mL; in experiment [5], 75 µg/mL; in experiment [6], 200 µg/mL. Also, the “peptide concentration giving 75% inhibition of growth (value in parentheses)” value in experiment [3] (Mueller Hinton Broth, complete growth inhibition not achieved) was “(37.5) μg/ml”; in [7] it was “(37.5) μg/ml”; in [10] it was “(300) μg/ml”.
Take “YIVYKIRRAWKRRKALK-OH [BOL-54, YIVYKIRRAWKRRKALK]”: the minimum inhibition concentration came out at 100 µg/mL in [1]; 200 µg/mL in experiment [2]; 18.75 µg/mL in experiment [3]; 75 µg/mL in [4]; 18.75 µg/mL in [5]; 100 µg/mL in [6]. The “peptide concentration giving 75% inhibition of growth (value in parentheses)” value in experiment [7] was “(25) μg/ml”; in experiment [10], “(200) μg/ml”.
With “YIVYKIRSARKRWK-OH [BOL-71, YIVYKIRSARKRWK]”, the minimum inhibition concentration in [1] stood at 300 µg/mL; in [2], 200 µg/mL; in experiment [3], 300 µg/mL; in experiment [4], 300 µg/mL; in [5], 300 µg/mL; in experiment [6] it was 200 µg/mL. In addition, the “peptide concentration giving 75% inhibition of growth (value in parentheses)” value in experiment [7] is “(200) μg/ml”; in [11] it was “(300) μg/ml”.
With “YIVYKIRSAWKRRKALK-OH [BOL-44, YIVYKIRSAWKRRKALK]”, the minimum inhibition concentration was 200 µg/mL in experiment [1]; 150 µg/mL in experiment [2]; 37.5 µg/mL in [3]; 200 µg/mL in experiment [4]; 75 µg/mL in experiment [5]; above 300 µg/mL in [6]. For the same substance, the “peptide concentration giving 75% inhibition of growth (value in parentheses)” value in experiment [7] was “(75) μg/ml”; in [11], “(300) μg/ml”.
For the substance “YIVYKIRWAWKRRKALK-OH [BOL-48, YIVYKIRWAWKRRKALK]”, the minimum inhibition concentration in [1] is 18.75 µg/mL; in experiment [2], 9.375 µg/mL; in [3], 9.375 µg/mL; in [4], 9.375 µg/mL; in experiment [5] it was 4.7 µg/mL; in [6] it was 12.5 µg/mL. The substance further gave a minimum inhibition concentration in [12] of 200 µg/mL. Moreover, the “peptide concentration giving 75% inhibition of growth (value in parentheses)” value in experiment [7] amounted to 6.5 µg/mL.
